Assay results reported in ChEMBL document CHEMBL3638446, “Quinoxaline inhibitors of phosphoinositide-3-kinases (PI3Ks)” (2013).

Target: Phosphatidylinositol 4,5-bisphosphate 3-kinase catalytic subunit gamma isoform (Homo sapiens, UniProt P48736)
Assay: Biological Assay: The assay combines the scintillation proximity assay technology (SPA, Amersham) with the capacity of neomycin (a polycationic antibiotic) to bind phospholipids with high affinity and specificity. The Scintillation Proximity Assay is based on the properties of weakly emitting isotopes (such as 3H, 125I, 33P). Coating SPA beads with neomycin allows the detection of phosphorylated lipid substrates after incubation with recombinant PI3K and radioactive ATP in the same well, by capturing the radioactive phospholipids to the SPA beads through their specific binding to neomycin.

Chain of Phosphatidylinositol 4,5-bisphosphate 3-kinase catalytic subunit gamma isoform (P48736 whole entry, canonical isoform): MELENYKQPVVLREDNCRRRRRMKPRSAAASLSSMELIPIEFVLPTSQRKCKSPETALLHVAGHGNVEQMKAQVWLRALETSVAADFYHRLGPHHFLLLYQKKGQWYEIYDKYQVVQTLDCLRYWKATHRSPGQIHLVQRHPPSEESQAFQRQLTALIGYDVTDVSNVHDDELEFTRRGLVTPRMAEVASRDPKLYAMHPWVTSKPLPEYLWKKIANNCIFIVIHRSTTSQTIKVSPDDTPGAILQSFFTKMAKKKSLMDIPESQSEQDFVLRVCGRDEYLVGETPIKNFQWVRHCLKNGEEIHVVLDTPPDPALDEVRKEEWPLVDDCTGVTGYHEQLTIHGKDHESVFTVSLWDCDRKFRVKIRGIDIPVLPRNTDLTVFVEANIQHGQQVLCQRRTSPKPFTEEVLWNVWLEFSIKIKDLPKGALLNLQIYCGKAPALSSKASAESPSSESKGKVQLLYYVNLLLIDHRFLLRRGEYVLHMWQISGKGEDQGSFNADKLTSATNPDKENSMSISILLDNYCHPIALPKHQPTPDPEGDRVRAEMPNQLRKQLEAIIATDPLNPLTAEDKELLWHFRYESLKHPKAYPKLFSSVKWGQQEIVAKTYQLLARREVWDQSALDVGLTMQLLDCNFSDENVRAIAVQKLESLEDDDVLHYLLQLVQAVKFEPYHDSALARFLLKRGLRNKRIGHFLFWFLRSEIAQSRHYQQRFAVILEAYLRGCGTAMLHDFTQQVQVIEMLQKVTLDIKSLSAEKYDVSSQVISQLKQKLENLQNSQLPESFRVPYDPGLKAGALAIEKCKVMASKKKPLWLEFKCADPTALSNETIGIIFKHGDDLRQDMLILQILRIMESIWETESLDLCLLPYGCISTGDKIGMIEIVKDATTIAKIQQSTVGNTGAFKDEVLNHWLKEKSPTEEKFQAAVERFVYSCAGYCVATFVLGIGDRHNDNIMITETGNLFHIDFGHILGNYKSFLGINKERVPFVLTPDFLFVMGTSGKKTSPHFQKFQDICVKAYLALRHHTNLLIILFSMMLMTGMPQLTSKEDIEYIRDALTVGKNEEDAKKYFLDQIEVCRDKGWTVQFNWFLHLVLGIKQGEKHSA

IC50: 30 nM
Structure (SMILES): COc1ccc(CC2CCOCC2)c(Nc2nc3ccccc3nc2NS(=O)(=O)c2ccc(CN(C)C)cc2)c1
